Reference: ChEMBL document CHEMBL5620374, “Synthesis and bioevaluation of novel stilbene-based derivatives as tubulin/HDAC dual-target inhibitors with potent antitumor activities in vitro and in vivo” (Eur J Med Chem, 2023)

Legend:
[1] = tested on: MCF7; assay: cells; conditions: Homo sapiens, MCF7, 72 h
Description: Antiproliferative activity against human MCF7 cells incubated for 72 hrs by MTT assay

[2] = tested on: K562; assay: Antiproliferative activity against human K562 cells incubated for 72 hrs by MTT assay; format: functional, cell-based; conditions: K562, 72 h
[3] = tested on: B16-F10; assay: Antiproliferative activity against mouse B16-F10 cells incubated for 72 hrs by MTT assay; format: functional, cell-based; conditions: B16-F10, 72 h
[4] = tested on: A2780; assay: cells; conditions: Homo sapiens, A2780, 72 h
Description: Antiproliferative activity against human A2780 cells incubated for 72 hrs by MTT assay

[5] = Antiproliferative activity against human HFL1 cells incubated for 72 hrs by MTT assay; format: toxicity, cell-based
[6] = tested on: A549; assay: cells; conditions: Homo sapiens, A549, 72 h
Description: Antiproliferative activity against human A549 cells incubated for 72 hrs by MTT assay

[7] = tested on: MDA-MB-231; assay: cells; conditions: Homo sapiens, MDA-MB-231, 72 h
Description: Antiproliferative activity against human MDA-MB-231 cells incubated for 72 hrs by MTT assay

[8] = tested on: K562; assay: Antiproliferative activity against human K562 cells assessed as cell inhibition rate at 0.1 uM incubated for 72 hrs by MTT assay relative to control; format: functional
[9] = tested on: K562; assay: Antiproliferative activity against human K562 cells assessed as cell inhibition rate at 0.01 uM incubated for 72 hrs by MTT assay relative to control; format: functional
[10] = tested on: K562; assay: Antiproliferative activity against human K562 cells assessed as cell inhibition rate at 1 uM incubated for 72 hrs by MTT assay relative to control; format: functional
[11] = target: T1, Histone deacetylase 7 (Homo sapiens, UniProt Q8WUI4); assay: Inhibition of HDAC7 derived from human HeLa cell extract using Ac-Leu-Gly-Lys (Ac)-AMC as substrate by fluorescence based assay; format: cell-free
T1 sequence (Q8WUI4 whole entry): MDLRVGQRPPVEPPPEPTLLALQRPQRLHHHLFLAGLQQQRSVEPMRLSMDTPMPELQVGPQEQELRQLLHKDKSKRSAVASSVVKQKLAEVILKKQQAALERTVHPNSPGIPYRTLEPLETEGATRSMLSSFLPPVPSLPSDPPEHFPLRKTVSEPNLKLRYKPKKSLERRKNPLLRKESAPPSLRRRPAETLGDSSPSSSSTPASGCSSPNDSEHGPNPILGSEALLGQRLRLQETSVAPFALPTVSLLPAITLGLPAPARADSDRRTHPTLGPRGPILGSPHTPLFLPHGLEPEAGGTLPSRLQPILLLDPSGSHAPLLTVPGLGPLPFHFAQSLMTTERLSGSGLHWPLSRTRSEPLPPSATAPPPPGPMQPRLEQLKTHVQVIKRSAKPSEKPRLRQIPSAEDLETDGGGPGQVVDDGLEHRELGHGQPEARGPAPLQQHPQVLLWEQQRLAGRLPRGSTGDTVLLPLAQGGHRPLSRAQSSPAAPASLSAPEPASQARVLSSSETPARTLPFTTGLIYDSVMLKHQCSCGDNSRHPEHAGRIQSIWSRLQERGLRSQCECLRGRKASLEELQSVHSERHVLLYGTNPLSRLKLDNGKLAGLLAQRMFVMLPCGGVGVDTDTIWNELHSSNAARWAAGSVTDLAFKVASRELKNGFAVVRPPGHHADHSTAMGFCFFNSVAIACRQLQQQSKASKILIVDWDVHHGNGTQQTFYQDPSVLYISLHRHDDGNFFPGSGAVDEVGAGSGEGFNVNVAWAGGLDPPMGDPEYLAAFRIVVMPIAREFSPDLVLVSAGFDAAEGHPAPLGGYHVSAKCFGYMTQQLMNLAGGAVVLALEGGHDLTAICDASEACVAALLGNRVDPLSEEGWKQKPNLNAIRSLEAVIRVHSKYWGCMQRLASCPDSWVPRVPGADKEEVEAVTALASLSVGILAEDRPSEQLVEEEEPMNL

[12] = target: T2, Protein deacetylase HDAC6 (Homo sapiens, UniProt Q9UBN7); assay: Inhibition of HDAC6 derived from human HeLa cell extract using Ac-Leu-Gly-Lys (Ac)-AMC as substrate by fluorescence based assay; format: cell-free
T2 sequence (Q9UBN7 whole entry): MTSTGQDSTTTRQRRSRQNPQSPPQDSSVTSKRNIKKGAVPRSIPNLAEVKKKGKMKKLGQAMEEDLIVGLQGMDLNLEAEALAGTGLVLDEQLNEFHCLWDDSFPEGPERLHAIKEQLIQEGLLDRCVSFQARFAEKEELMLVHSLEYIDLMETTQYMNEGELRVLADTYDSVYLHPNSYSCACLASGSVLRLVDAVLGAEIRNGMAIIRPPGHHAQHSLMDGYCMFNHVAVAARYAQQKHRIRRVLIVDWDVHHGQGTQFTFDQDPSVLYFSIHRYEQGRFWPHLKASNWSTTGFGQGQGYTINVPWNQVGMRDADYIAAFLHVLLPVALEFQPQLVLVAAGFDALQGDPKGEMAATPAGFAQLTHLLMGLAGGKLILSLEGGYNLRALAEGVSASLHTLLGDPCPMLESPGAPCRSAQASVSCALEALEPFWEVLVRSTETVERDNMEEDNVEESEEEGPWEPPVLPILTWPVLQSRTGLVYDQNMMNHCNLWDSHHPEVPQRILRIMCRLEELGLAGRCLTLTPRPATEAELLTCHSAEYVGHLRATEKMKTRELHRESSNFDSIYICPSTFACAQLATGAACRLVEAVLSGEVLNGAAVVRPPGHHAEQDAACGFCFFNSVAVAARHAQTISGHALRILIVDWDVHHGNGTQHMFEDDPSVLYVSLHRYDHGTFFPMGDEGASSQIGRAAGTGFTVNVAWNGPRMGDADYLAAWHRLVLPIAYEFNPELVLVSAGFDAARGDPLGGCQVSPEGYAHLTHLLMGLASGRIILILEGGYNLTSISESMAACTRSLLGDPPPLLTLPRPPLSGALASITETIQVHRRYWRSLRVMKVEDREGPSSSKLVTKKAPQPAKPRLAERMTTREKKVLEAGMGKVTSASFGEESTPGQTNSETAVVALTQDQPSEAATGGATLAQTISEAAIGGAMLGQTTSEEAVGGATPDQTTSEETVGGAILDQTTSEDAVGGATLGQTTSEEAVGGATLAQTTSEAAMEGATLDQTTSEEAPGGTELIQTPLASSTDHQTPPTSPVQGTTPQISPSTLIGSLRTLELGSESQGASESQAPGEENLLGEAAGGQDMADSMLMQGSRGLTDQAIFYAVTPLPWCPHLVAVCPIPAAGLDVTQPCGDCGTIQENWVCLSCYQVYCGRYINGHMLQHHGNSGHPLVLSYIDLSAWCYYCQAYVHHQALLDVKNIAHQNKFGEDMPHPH

[13] = target: Histone deacetylase 1 (Homo sapiens, UniProt Q13547); assay: Inhibition of HDAC1 derived from human HeLa cell extract using Ac-Leu-Gly-Lys (Ac)-AMC as substrate by fluorescence based assay; format: cell-free
Histone deacetylase 1, sequence (Q13547 whole entry): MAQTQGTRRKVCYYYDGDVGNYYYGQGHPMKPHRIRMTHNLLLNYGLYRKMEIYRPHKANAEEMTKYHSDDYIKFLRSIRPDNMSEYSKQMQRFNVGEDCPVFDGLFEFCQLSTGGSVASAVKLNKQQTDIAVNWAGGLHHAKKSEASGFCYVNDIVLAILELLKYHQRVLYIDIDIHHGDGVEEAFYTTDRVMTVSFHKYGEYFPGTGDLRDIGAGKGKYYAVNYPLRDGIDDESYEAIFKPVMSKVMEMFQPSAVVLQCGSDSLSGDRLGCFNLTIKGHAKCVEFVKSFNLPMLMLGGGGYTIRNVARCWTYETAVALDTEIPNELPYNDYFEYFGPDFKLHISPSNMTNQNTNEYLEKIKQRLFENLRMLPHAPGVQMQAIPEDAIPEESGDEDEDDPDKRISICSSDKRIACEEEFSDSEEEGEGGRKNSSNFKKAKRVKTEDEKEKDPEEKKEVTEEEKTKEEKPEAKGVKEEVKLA

[14] = target: Histone deacetylase 2 (Homo sapiens, UniProt Q92769); assay: Inhibition of HDAC2 derived from human HeLa cell extract using Ac-Leu-Gly-Lys (Ac)-AMC as substrate by fluorescence based assay
Histone deacetylase 2, sequence (Q92769 whole entry): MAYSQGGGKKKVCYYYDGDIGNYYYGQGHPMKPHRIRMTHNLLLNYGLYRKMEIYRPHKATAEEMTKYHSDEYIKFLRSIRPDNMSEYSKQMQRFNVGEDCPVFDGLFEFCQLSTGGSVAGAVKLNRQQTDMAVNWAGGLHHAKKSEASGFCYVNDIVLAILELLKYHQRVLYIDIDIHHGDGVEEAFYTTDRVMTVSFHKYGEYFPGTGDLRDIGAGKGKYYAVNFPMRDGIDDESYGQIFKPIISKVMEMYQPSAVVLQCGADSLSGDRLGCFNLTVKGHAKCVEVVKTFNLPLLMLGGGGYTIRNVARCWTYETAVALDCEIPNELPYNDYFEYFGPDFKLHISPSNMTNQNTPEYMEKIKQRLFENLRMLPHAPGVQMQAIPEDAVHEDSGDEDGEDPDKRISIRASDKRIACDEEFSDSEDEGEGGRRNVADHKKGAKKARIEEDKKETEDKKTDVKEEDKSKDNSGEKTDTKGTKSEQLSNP

[15] = target: Histone deacetylase 3 (Homo sapiens, UniProt O15379); assay: Inhibition of HDAC3 derived from human HeLa cell extract using Ac-Leu-Gly-Lys (Ac)-AMC as substrate by fluorescence based assay; format: cell-free
Histone deacetylase 3, sequence (O15379 whole entry): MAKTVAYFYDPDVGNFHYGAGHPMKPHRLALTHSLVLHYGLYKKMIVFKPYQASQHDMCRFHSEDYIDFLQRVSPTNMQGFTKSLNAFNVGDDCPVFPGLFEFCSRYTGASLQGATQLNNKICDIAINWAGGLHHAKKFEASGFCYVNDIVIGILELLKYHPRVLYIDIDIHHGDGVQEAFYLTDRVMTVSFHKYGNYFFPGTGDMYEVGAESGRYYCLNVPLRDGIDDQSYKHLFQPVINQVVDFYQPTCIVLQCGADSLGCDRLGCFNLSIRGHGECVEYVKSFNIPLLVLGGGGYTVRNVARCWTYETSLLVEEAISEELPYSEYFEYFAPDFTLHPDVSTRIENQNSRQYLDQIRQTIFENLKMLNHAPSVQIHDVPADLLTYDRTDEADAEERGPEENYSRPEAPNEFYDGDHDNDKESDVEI

[16] = tested on: H22; assay: Antitumor activity against mouse H22 cells allografted in ICR mouse assessed as tumor growth inhibition at 20 mg/kg, iv qd for 17 days consecutively relative to control; format: functional; conditions: time 17 day, read-out: TGI

Compound | IC50 [1] [nM] | IC50 [2] [nM] | IC50 [3] [nM] | IC50 [4] [nM] | IC50 [6] [nM] | IC50 [7] [nM] | IC50 [11] [nM] | IC50 [12] [nM] | IC50 [13] [nM] | IC50 [14] [nM] | IC50 [15] [nM] | IC50 at 72 h [5] [nM] | inhibition at 0.1 µM [8] [%] | inhibition at 0.01 µM [9] [%] | inhibition at 1 µM [10] [%] | inhibition in vivo at 20 mg/kg [16] [%]
C=C(c1cc(C)nc(C)c1)c1ccc(OC)c(OCC(=O)NO)c1 | 52 | 26 | 98 | 36 | 69 | 111 |  |  |  |  |  | 264 |  |  |  | 
COc1ccc(/C=C\c2cc(OC)c(OC)c(OC)c2)cc1O [COMBRETASTATIN A4] | 71 | 7 | 7 |  | 2 | 29 |  |  |  |  |  | 82 | 88.4 | 86.6 | 95 | 
C=C(c1ccc(OC)c(/C=C/C(=O)NO)c1)c1cc(C)nc2ccccc12 | 17 | 42 | 15 | 5 | 9 | 11 |  |  |  |  |  | 311 |  |  |  | 
C=C(c1ccc(OC)c(O)c1)c1cc(C)nc2ccccc12 |  |  |  |  |  |  |  |  |  |  |  |  |  |  |  | 64.1

The remaining compounds from weak to strong by IC50 [1], led by results:

IC50 [1] [nM] | IC50 [2] [nM] | IC50 [3] [nM] | IC50 [4] [nM] | IC50 [6] [nM] | IC50 [7] [nM] | IC50 [11] [nM] | IC50 [12] [nM] | IC50 [13] [nM] | IC50 [14] [nM] | IC50 [15] [nM] | Compound | IC50 at 72 h [5] [nM] | inhibition at 0.1 µM [8] [%] | inhibition at 0.01 µM [9] [%] | inhibition at 1 µM [10] [%] | inhibition in vivo at 20 mg/kg [16] [%]
55 | 8 | 28 | 16 | 38 | 32 |  |  |  |  |  | C=C(c1ccc(OC)c(OCC(=O)NO)c1)c1cc(C)nc2ccccc12 | 195 |  |  |  | 
44 | 5 | 4 | 8 | 9 | 31 |  |  |  |  |  | C=C(c1ccc(OC)c(OC(C)(C)C(=O)NO)c1)c1cc(C)nc2ccccc12 | 103 |  |  |  | 
22 | 7 | 30 | 14 | 15 | 28 | > 10000 | 4680 | 1470 | 2320 | 8910 | C=C(c1ccc(OC)c(OC(C)C(=O)NO)c1)c1cc(C)nc2ccccc12 (configuration not stated) | 95 |  |  |  | 
19 | 19 | 72 | 23 | 80 | 99 |  |  |  |  |  | C=C(c1cc(C)nc(C)c1)c1ccc(OC)c(OC(C)C(=O)NO)c1 (configuration not stated) | 213 |  |  |  | 
